{
  "source": "patent US20080031868A1",
  "about": "“HUMAN LYSOZYME MEDICINE, ITS MANUFACTURING METHOD AND APPLICATION THEREOF” (priority 2005, published 2008)",
  "test_system": "Staphylococcus aureus MRSABAA-42",
  "assay": "Bronchus pneumonia mice infected by Staphylococcus aureus MRSA BAA-42, treated by atomization inspiring",
  "assay_type": "in vivo",
  "details": "for bacterial number: mice lung",
  "note": "Marks after values point to notes of the source that are not given here.",
  "data": [
    {"substance": "Human lysozyme: gene recombinant Human Lysozyme (HLZ), active unit 30000 u/mg, batch number 020110; given atomized / as aerosol", "values": [
      {"measurement": "accumulative survival number", "setting": "2 mg/ml atomization inspired, 30 mice, 14 days", "value": 23},
      {"measurement": "survival rate (%)", "setting": "2 mg/ml atomization inspired, 14 days", "value": 76.7, "unit": "%"},
      {"measurement": "Death number(piece)", "setting": "2 mg/ml atomization inspired, day 1", "value": 0, "unit": "piece"},
      {"measurement": "Death number(piece)", "setting": "2 mg/ml atomization inspired, day 2", "value": 0, "unit": "piece"},
      {"measurement": "Death number(piece)", "setting": "2 mg/ml atomization inspired, day 3", "value": 0, "unit": "piece"},
      {"measurement": "Death number(piece)", "setting": "2 mg/ml atomization inspired, day 4", "value": 0, "unit": "piece"},
      {"measurement": "Death number(piece)", "setting": "2 mg/ml atomization inspired, day 5", "value": 0, "unit": "piece"},
      {"measurement": "Death number(piece)", "setting": "2 mg/ml atomization inspired, day 6", "value": 0, "unit": "piece"},
      {"measurement": "Death number(piece)", "setting": "2 mg/ml atomization inspired, day 7", "value": 0, "unit": "piece"},
      {"measurement": "Death number(piece)", "setting": "2 mg/ml atomization inspired, day 9", "value": 2, "unit": "piece"},
      {"measurement": "Death number(piece)", "setting": "2 mg/ml atomization inspired, day 10", "value": 1, "unit": "piece"},
      {"measurement": "Death number(piece)", "setting": "2 mg/ml atomization inspired, day 11", "value": 2, "unit": "piece"},
      {"measurement": "Death number(piece)", "setting": "2 mg/ml atomization inspired, day 12", "value": 0, "unit": "piece"},
      {"measurement": "Death number(piece)", "setting": "2 mg/ml atomization inspired, day 13", "value": 0, "unit": "piece"},
      {"measurement": "Death number(piece)", "setting": "2 mg/ml atomization inspired, day 14", "value": 0, "unit": "piece"},
      {"measurement": "survival elevation rate (%)", "setting": "2 mg/ml atomization inspired, versus infected model group", "value": 60.0, "unit": "%"},
      {"measurement": "improving of survival rate and days over infected control group", "setting": "2, 1, 0.5 mg/ml, p<0.05", "value": "30-60%"},
      {"measurement": "lung bacterial number", "setting": "by the 14th day, basically negative", "value": "< 10", "unit": "CFU/ml"},
      {"measurement": "The 4th day (bacterial number, head incomplete)", "setting": "dose 0.5", "value": "5.0 ± 3.0"},
      {"measurement": "The 5th day (bacterial number, head incomplete)", "setting": "dose 0.5, the 5th day", "value": "80.80 ± 14.28"},
      {"measurement": "The 4th day (bacterial number, head incomplete)", "setting": "dose 1", "value": "5.5 ± 3.2"},
      {"measurement": "The 5th day (bacterial number, head incomplete)", "setting": "dose 1, the 5th day", "value": "78.30 ± 17.86"},
      {"measurement": "The 4th day (bacterial number, head incomplete)", "setting": "dose 2", "value": "3.5 ± 2.0"},
      {"measurement": "The 5th day (bacterial number, head incomplete)", "setting": "dose 2, the 5th day", "value": "76.70 ± 11.60"},
      {"measurement": "result of pathology detection of the mice bronchus", "setting": "high dose 2 mg/ml, 3rd day", "value": "bronchus moderate inflammation, mucous membrane"},
      {"measurement": "result of pathology detection of the mice lung tissue", "setting": "high dose 2 mg/ml, 3rd day", "value": "part of alveolar wall tissue thickening, few monocaryon"},
      {"measurement": "result of pathology detection of the mice trachea", "setting": "high dose 2 mg/ml, 3rd day", "value": "acute moderate inflammation"},
      {"measurement": "result of pathology detection of the mice bronchus", "setting": "high dose 2 mg/ml, 7th day", "value": "bronchus moderate inflammation, intact mucous"},
      {"measurement": "result of pathology detection of the mice lung tissue", "setting": "high dose 2 mg/ml, 7th day", "value": "normal basically"},
      {"measurement": "result of pathology detection of the mice trachea", "setting": "high dose 2 mg/ml, 7th day", "value": "Normal basically"},
      {"measurement": "result of pathology detection of the mice bronchus", "setting": "high dose 2 mg/ml, 14th day", "value": "Normal basically"},
      {"measurement": "result of pathology detection of the mice bronchus", "setting": "low dose 0.5 mg/ml, 3rd day", "value": "bronchus moderate inflammation"},
      {"measurement": "result of pathology detection of the mice lung tissue", "setting": "low dose 0.5 mg/ml, 3rd day", "value": "the disperse alveolar wall tissue gently thickening,"},
      {"measurement": "result of pathology detection of the mice trachea", "setting": "low dose 0.5 mg/ml, 3rd day", "value": "acute hyperphlogosis"},
      {"measurement": "result of pathology detection of the mice bronchus", "setting": "low dose 0.5 mg/ml, 7th day", "value": "bronchus moderate inflammation"},
      {"measurement": "result of pathology detection of the mice lung tissue", "setting": "low dose 0.5 mg/ml, 7th day", "value": "the part or disperse alveolar wall tissue gently"},
      {"measurement": "result of pathology detection of the mice trachea", "setting": "low dose 0.5 mg/ml, 7th day", "value": "acute hyperphlogosis"},
      {"measurement": "result of pathology detection of the mice bronchus", "setting": "low dose 0.5 mg/ml, 14th day", "value": "bronchus moderate inflammation, bleeding"},
      {"measurement": "result of pathology detection of the mice trachea", "setting": "low dose 0.5 mg/ml, 14th day", "value": "acute mild inflammation"},
      {"measurement": "result of pathology detection of the mice bronchus", "setting": "medium dose 1 mg/ml, 3rd day", "value": "bronchus moderate inflammation, bleeding, hydroncus,"},
      {"measurement": "result of pathology detection of the mice lung tissue", "setting": "medium dose 1 mg/ml, 3rd day", "value": "bronchiole alveolar wall tissue thickening, few"},
      {"measurement": "result of pathology detection of the mice trachea", "setting": "medium dose 1 mg/ml, 3rd day", "value": "acute moderate inflammation"},
      {"measurement": "result of pathology detection of the mice bronchus", "setting": "medium dose 1 mg/ml, 7th day", "value": "bronchus moderate inflammation"},
      {"measurement": "result of pathology detection of the mice trachea", "setting": "medium dose 1 mg/ml, 7th day", "value": "acute moderate inflammation"},
      {"measurement": "result of pathology detection of the mice bronchus", "setting": "medium dose 1 mg/ml, 14th day", "value": "bronchus moderate inflammation"},
      {"measurement": "result of pathology detection of the mice lung tissue", "setting": "medium dose 1 mg/ml, 14th day", "value": "normal basically"},
      {"measurement": "result of pathology detection of the mice trachea", "setting": "medium dose 1 mg/ml, 14th day", "value": "Normal basically"},
      {"measurement": "pharmacology histology detection of trachea, bronchus, lung tissue", "setting": "mice killed on the 7th, 14th day after administration", "value": "turned to normal basically"},
      {"measurement": "bacterial number", "setting": "atomization inspired 0.5 (15000 u/piece), the 1th day", "value": "350.60 ± 21.5", "unit": "CFU/mL"},
      {"measurement": "bacterial number", "setting": "atomization inspired 0.5 (15000 u/piece), the 3rd day", "value": "241.90 ± 16.62", "unit": "CFU/mL"},
      {"measurement": "bacterial number", "setting": "atomization inspired 0.5 (15000 u/piece), the 5th day", "value": "134.60 ± 13.58", "unit": "CFU/mL"},
      {"measurement": "bacterial number", "setting": "atomization inspired 0.5 (15000 u/piece), the 14th day", "value": "57.60 ± 15.37", "unit": "CFU/mL"},
      {"measurement": "bacterial number", "setting": "atomization inspired 1 (30000 u/piece), 0 day", "value": "350 ± 21.5", "unit": "CFU/mL"},
      {"measurement": "bacterial number", "setting": "atomization inspired 1 (30000 u/piece), the 1th day", "value": "254.20 ± 25.42", "unit": "CFU/mL"},
      {"measurement": "bacterial number", "setting": "atomization inspired 1 (30000 u/piece), the 3rd day", "value": "172.70 ± 17.62**^ΔΔ CFU/mL"},
      {"measurement": "bacterial number", "setting": "atomization inspired 1 (30000 u/piece), the 14th day", "value": "3.5 ± 0.20", "unit": "CFU/mL"},
      {"measurement": "bacterial number", "setting": "atomization inspired 2 (60000 u/piece), the 1th day", "value": "253.80 ± 22.88", "unit": "CFU/mL"},
      {"measurement": "bacterial number", "setting": "atomization inspired 2 (60000 u/piece), the 3rd day", "value": "165.80 ± 16.08^ΔΔ CFU/mL"},
      {"measurement": "bacterial number", "setting": "atomization inspired 2 (60000 u/piece), the 5th day", "value": "76.70 ± 11.60***^ΔΔ CFU/mL"},
      {"measurement": "bacterial number", "setting": "atomization inspired 2 (60000 u/piece), the 14th day", "value": "2.50 ± 1.46", "unit": "CFU/mL"}
    ]}
  ]
}
